In series [1] the test system is surviving regenerating intestinal crypts. As to the kind of experiment: Small intestinal crypt survival in murine total-body irradiation (TBI) model of intestinal mucositis. It counts as in vivo, Mouse (Mus musculus) C57BL6. The settings on record: 12 Gy. The text has this: The aim of the study whose results are provided in FIG. 2-6 was to determine the effect of TK-112690 on small intestinal crypt survival, in a murine total-body irradiation (TBI) model of intestinal mucositis.
• Animal Species: Mouse (Mus musculus) • Strain/substrain: C57BL6 (negative for Klebsiella oxytoca) • Source: Jackson Laboratories, MP-14, Bar Harbour, Me 04609, USA • Total animals: 40 males plus 5 spares • Body weight range: 18 to 25 g at start of treatment • Animal ages: 10 to 12 weeks at start of treatment • Housing: Animals were individually housed in rodent polycarbonated bins with bedding (irradiated Teklad sani chips) equipped with water bottles. Following group assignment, all cages were clearly labeled with a color-coded cage card indicating at least the study number and animal number. • Animal Identification: Each animal was individually identified using a permanent marker. • Group Animal Numbers: Each animal was given a four-number identification code. The first number corresponds to the respective dose group (1-4). The second number refers to whether the animal is the original animal, for instance the number 0, or a replacement, for instance 1, The third and fourth numbers identify the animal's rank within each group. • Room Environment: The animal room environment was set to maintain a temperature of 21±3° C., a relative humidity of 50±20%; and a light dark cycle of 12 hours light/12 hours dark, except during Study Plan-designated procedures. • Diet/Water: A standard certified commercial chow (Envigo Teklad Certified Irradiated Global Rodent Diet #2918C) was provided to the animals ad libitum except during designated procedures. Treats or fruits/vegetables were provided as part of the animal enrichment program. Concentrations of the contaminants (e.g., heavy metals, aflatoxin, organophosphate and chlorinated hydrocarbons) were routinely measured by the manufacturers. Acidified (pH between 2.75 and 3.25) municipal tap water (which had been exposed to ultraviolet light and purified by reverse osmosis) was provided to all animals ad libitum, except during designated procedures, via water bottles. Water bottles were changed at least every 3 days prior to irradiation and every 2 days after irradiation. Acidified water was changed every day after irradiation. During transportation and irradiation, animals were provided with food and water gel packs. Animals received water gel packs at least 2 days before transportation to acclimate to this type of hydration supplement and this procedure continued until necropsy. In addition, wetted food was provided to the animals on the bottom of the bins from Day 1 to the day of necropsy. • Acclimation: An acclimation period of at least 14 days was allowed between receipt of the animals and the start of dosing to accustom the animals to the laboratory environment. • Animal Assignment: During the acclimation period, animals were separately assigned to dose groups by a randomizing stratification system based on body weights. For logistical reasons, the animals were assigned to replicate subgroups, which may initiate dosing on different days.
The test item and reference item/vehicle are administered by intraperitoneal injection (ip) or oral gavage (po) 1.5 to 2 hour prior and 4 hours post irradiation and then twice daily (12 hours apart) for 4 consecutive days (Days 2 to 5), as shown below: […]

Series [2] is classed as in vivo. The settings on record: TK-112690 60 mg/kg ip or 240 mg/kg po bid plus uridine 60 mg/kg vs PBS; 12 Gy; ip and po combined; p=0.012. From the text:
• Animal Species: Mouse (Mus musculus) • Strain/substrain: C57BL6 (negative for Klebsiella oxytoca) • Source: Jackson Laboratories, MP-14, Bar Harbour, Me 04609, USA • Total animals: 40 males plus 5 spares • Body weight range: 18 to 25 g at start of treatment • Animal ages: 10 to 12 weeks at start of treatment • Housing: Animals were individually housed in rodent polycarbonated bins with bedding (irradiated Teklad sani chips) equipped with water bottles. Following group assignment, all cages were clearly labeled with a color-coded cage card indicating at least the study number and animal number. • Animal Identification: Each animal was individually identified using a permanent marker. • Group Animal Numbers: Each animal was given a four-number identification code. The first number corresponds to the respective dose group (1-4). […] Concentrations of the contaminants (e.g., heavy metals, aflatoxin, organophosphate and chlorinated hydrocarbons) were routinely measured by the manufacturers. […]
Mortality checks were recorded concomitantly with the cage-side observations (see below for clinical signs), during all phases of the study. […]

Series [3] is described as follows: Plasma concentration profile over 8 hours in mice (LC/MS). The settings on record: mouse plasma; for half-life: female, CD-1, read-out: Elimination half-life (converted). It counts as in vivo, CD-1 Female Mice. How it is done: FIG. 3 depicts a set of data expressing plasma concentration profile over 8 hours in mice administered either 60 mg/kg of TK-112690 ip or 240 mg/kg po by gavage. Plasma samples from 3 animals/timepoint were analyzed. CD-1 Female Mice (n=3) were dosed with either 60 (ip) or 240 (po) mg/kg TK-112690 in PBS. Blood samples were obtained at the designated timepoints, and the samples analyzed for drug using LC/MS.

Molecules are shown by their SMILES. Read-outs that look alike come from different tables or passages of the source.

As a reminder, the half-life is the time in which the quantity being followed falls by half. As for `Cc1cn2c(nc1=O)O[C@H]1[C@H](O)[C@@H](CO)O[C@H]12` [TK-112690], the “number of surviving intestinal crypts in the jejunum, Z scores” value in series [1] (TK-112690 60 mg/kg ip bid plus uridine 60 mg/kg vs PBS, p=0.029) is given as “ameliorates the mucosal damage in the jejunum”; in series [1] (TK-112690 60 mg/kg ip or 240 mg/kg po bid (combined) plus uridine 60 mg/kg vs PBS, p=0.007), “minimizes the mucosal damage in the jejunum”; in series [1] (TK-112690 240 mg/kg po bid plus uridine 60 mg/kg vs PBS, p=0.041) it was “ameliorates the mucosal damage in the jejunum”. Also, the “number of surviving intestinal crypts (jejunum, duodenum, ileum), Z scores” value in series [1] (TK-112690 60 mg/kg ip or 240 mg/kg po bid plus uridine 60 mg/kg vs PBS, p=0.03) is given as “lessens the mucosal damage associated with radiation treatment”. In addition, the “number of surviving intestinal crypts in the duodenum, Z scores” value in series [1] (TK-112690 60 mg/kg ip or 240 mg/kg po bid plus uridine 60 mg/kg vs PBS, p=0.046) is “ameliorates the mucosal damage in the duodenum”. In addition, the “difference in body weight between pre-treatment and day 6 (Z scores)” value in series [2] is given as “modest, highly statistically significant (p=0.012) protection from weight loss”. Also, the figures for the AUC0→Last result in series [3] (60 mg/kg ip in PBS) and in series [3] (240 mg/kg po by gavage in PBS) were “Approximately 30 (micrograms/mL)*hour” and ~40 (micrograms/mL)*hour, respectively. The half-life in series [3] (60 mg/kg ip in PBS) and in series [3] (240 mg/kg po by gavage in PBS) was around 2.5 h in each case.

(Values after patent publication US12508265B2, “Methods and compositions for reducing radiation induced toxicity” (Tosk, Inc., priority 2018, dated 2025).)
